{"source": "patent US10966964B2", "about": "“Method for preparing pharmaceutical composition comprising pyrrolo-fused six-membered heterocyclic compound” (Jiangsu Hengrui Medicine Co., Ltd., priority 2016, dated 2021)", "assay": "Water solubility and moisture stability of the active ingredient (statement)", "format": "physicochemical", "details": "compound of formula (I) or a pharmaceutically acceptable salt thereof", "text": "Since the compound of formula (I) or a pharmaceutically acceptable salt thereof has poor water solubility, and is unstable in the presence of moisture, water cannot be used as a solvent for wet granulation. When the compound of formula (I) or a pharmaceutically acceptable salt thereof is formulated into a pharmaceutical composition by using a conventional preparation method, the resulting composition is difficult to dissolve rapidly and keep its quality stable. There is a need to find a suitable method to obtain a stable composition with a rapid dissolution.", "data": [{"smiles": "CCN(CC)CCN1CCc2[nH]c(/C=C3\\C(=O)Nc4ccc(F)cc43)c(C)c2C1=O.O=C(O)C[C@H](O)C(=O)O", "note": "[compound of formula (I), 5-(2-diethylamino-ethyl)-2-(5-fluoro-2-oxo-1,2-dihydro-indol-3-ylidene-methyl)-3-methyl-1,5,6,7-tetrahydro-pyrrolo[3,2-c]pyridin-4-one]", "values": [{"measurement": "stability in the presence of moisture (in words)", "value": "unstable"}, {"measurement": "water solubility (in words)", "value": "poor"}]}]}
